Measured values as given in patent US8557960B2, “Peptide for augmenting and expression of BDNF and pharmaceutical composition for prevention and treatment of neurodegenerative diseases including Alzheimer's disease or Parkinson's disease, comprising the same” (Sungkyunkwan University, priority 2009, dated 2013).

System: BDNF
Assay: Assay for BDNF expression in dopamine-reactive human cell line SH-SY5Y (Western blotting)
Format: cell-based
Conditions: SH-SY5Y cells, 12 hrs treatment, FIG. 2
Experimental: SH-SY5Y cells were seeded at a density of 2×10^5 cells/well into 6-well plates (NUNC) and incubated at 34° C. for 12 hrs in a 5% CO2 incubator and then for an additional 12 hrs in the presence of one of NP 2 to 9 at a concentration of 1 pM, 10 pM, 100 pM, 1 nM, 10 nM, 100 nM, or 1 μM. The cells in each well were washed twice with 1 mL of 1×PBS […], treated with 10 μL of protease inhibitor (Amersham) per 1 mL of RIPA, and collected into 1.5 mL tubes using a cell lifter (Corning). After centrifugation at 4° C. and 9000 rpm for 5 min (MiCRO 17 TR, Hnil Science Industrial Co., Ltd.) to pelletize cell membranes, the supernatants containing proteins were transferred into new 1.5 mL tubes and quantitatively measured for protein level using a Bradford assay.
20 μL of each sample was loaded onto 15% acrylamide gel, prepared using a 1.5 mm Western blotting gel caster (Bio-Rad), and run for 2.5 hrs in the presence of an electric field of 100 V using an electrophoresis power supply (EPS 601, Amersham). The proteins run on the gel were transferred onto a PVDF membrane (Polyvinylidene Difluoride, Millipore) at 400 mA for 2.5 hrs in a transfer tank (Mighty small transphor, Amersham) using an electrophoresis power supply (EPS301, GE healthcare). The PVDF membrane was blocked for 1 hr with 7% skim milk (Difco™ Skim milk, BD) and incubated overnight with a mouse anti-human BDNF monoclonal antibody at a dilution ratio of 1:500. Thereafter, the membrane was washed for 2 hrs 0.05% TBST (Tris-Buffered Saline Tween 20) (this buffer was replaced every hour) and incubated for 1 hr with goat anti-mouse IgG:HRP (IgG:Horseradish Peroxidase Conjugate, SC-2005, Santa Cruz Biotechnology) at a ratio of 1:500. After washing the membrane with 0.05% TBST for 2 hrs (the buffer was replaced every hour), proteins were detected using a chemiluminescent HRP substrate kit (Millipore), and the results are shown in FIG. 2.

Q: With Val-Gly [NP-9] as the substance, how does the “BDNF expression (relative level of BDNF to β-actin vs control)” value (shortened to “relative level of BDNF to β-actin”) read?
A: used at the same or less than was the amount of the tripeptides so as to induce BDNF expression

Q: With Met-Thr-Gly [NP-6] as the substance, how does the “relative level of BDNF to β-actin” value read?
A: even a very small amount of NP-5 and NP-6 could augment BDNF expression

Q: With Met-Asp-Gly [NP-5] as the substance, how does the “relative level of BDNF to β-actin” value read?
A: even a very small amount of NP-5 and NP-6 could augment BDNF expression
